Measurements from paper PMC9154793, “Design, synthesis, and biological evaluation of triazole-pyrimidine-methylbenzonitrile derivatives as dual A2A/A2B adenosine receptor antagonists” (Journal of Enzyme Inhibition and Medicinal Chemistry, 2022).

Assay: Metabolic stability in rat liver microsomes
Type: in vitro ADME, Sprague–Dawley rats
Settings: for remaining at 10 min, 0.49 µM / remaining at 20 min, 0.49 µM / remaining at 0.5 h, 0.49 µM / remaining at 40 min, 0.49 µM / remaining at 50 min, 0.49 µM / remaining at 1 h, 0.49 µM / half-life at 0.49 µM: male, Sprague-Dawley, pooled rat liver microsomes; for remaining at 10 min, 0.49 µM / remaining at 20 min, 0.49 µM / remaining at 0.5 h, 0.49 µM / remaining at 40 min, 0.49 µM / remaining at 50 min, 0.49 µM / remaining at 1 h, 0.49 µM / CLint(liver) Rat: rat liver microsomes; for remaining at 0.5 h, 0.49 µM: 30 min; for remaining at 1 h, 0.49 µM: 60 min, read-out: Remaining (%, T = 60min) Rat; for half-life at 0.49 µM: rat, read-out: T1/2 Rat
Experimental: The metabolic stability is an important focus for further compound optimisation. Compounds 7f, 7i, and AB928 were chosen to evaluate the stability in rat liver microsomes and human liver microsomes. For the microsomal metabolic experiment, 7-ethoxycoumarin (7-EC) was used as a control. As shown in Table 4 (see Supporting information for raw data), the CLint(liver) of 7-EC in rats and humans was 10.0 and 9.0 ml/min/g liver, respectively, indicating the experimental test system was reliable.
Metabolic stabilities of compounds 7f, 7i, and AB928 in liver microsomes were studied with pooled human (male) liver microsomes solution (20 mg/ml) and male Sprague–Dawley rats pooled liver microsomes solution (20 mg/ml) purchased from Research Institute for Liver Diseases (Shanghai) Co. Ltd. Both liver microsomes solutions (140 μl) were diluted by 3948 μl of water and 280 μl of phosphate buffered saline. The assay procedure: 640 μl of diluted liver microsomes solution was added to a solution of compound working solution (16 μl, 25 μM in DMSO) and the mixed solution was incubated at 37 °C for 5 min. Then 160 μl of NADPH generating system was added and take out 100 μl from the mixed solution was added 200 μl of acetonitrile solution to stop the reaction at the set incubation time (0 min, 10 min, 20 min, 30 min, 40 min, 50 min, and 60 min). All stopped reaction solutions were vortex mixed (3 min) and centrifuged (10,000 rpm, 4 °C for 10 min). Then 50 μl of the supernatant was analysed by UPLC-MS/MS system (details of the analytical method see Supporting information). […]
8. Metabolic stability in human and rat liver microsomes
Metabolic stabilities of compounds 7f, 7i and AB928 in liver microsomes were studied with pooled human (male) liver microsomes solution (20 mg/mL) and male Sprague - Dawley rats pooled liver microsomes solution (20 mg/mL) purchased from Research Institute for Liver Diseases (Shanghai) Co. Ltd. Both liver microsomes solutions (140 μL) were diluted by 3948 μL of water and 280 μL of phosphate buffered saline. The assay procedure: 640 μL of diluted liver microsomes solution was added to a solution of compound working solution (16 μL, 25 μM in DMSO) and the mixed solution was […]
(1 picture or pasted object on this page, not shown here) […]
incubated at 37 ℃ for 5 min. Then 160 μL of NADPH generating system was added and take out 100 μL from the mixed solution was added 200 μL of acetonitrile solution to stop the reaction at the set incubation time (0 min, 10 min, 20 min, 30 min, 40 min, 50 min, and 60 min). All stopped reaction solutions were vortex mixed (3 min) and centrifuged (10000 rpm, 4 ℃ for 10 min). Then 50 μL of the supernatant was analyzed […]
8.2 Chromatography and mass spectrometry conditions
UPLC was performed using an […] UPLC system (Waters, Milford, MA, […]
USA). Separation was achieved on a Waters BEH C18 column(100 mm × 2.1 mm， 1.7 μm) at 40 ℃. The injection volume of the sample solution was 5 μL. The mobile phase consisted of water (0.1% formic acid and ammonium acetate) and acetonitrile solution (20:80, v/v) at a flow rate of 0.4 mL/min within a running time of 6 min. Mass spectrometric analysis was performed on a Waters Xevo TQ-S triple quadrupole instrument using electrospray ionization in positive mode. Quantification was performed using multiple reaction monitoring (MRM) mode to monitor precursor-product ion transitions (Table S1).
Table S1. Conditions of MRM Detection. […]
Table S2. Raw data of metabolic stability in human and rat liver microsomes. […]
(min) Hum Rat Hum Rat Hum Rat Hum Rat
9. Analytical method of pharmacokinetics assay
Animal experiments were performed according to the institutional ethical guidelines on animal care and approved by the Institute Animal Care and Use Committee at Binzhou […]
Female Bal b/c mice (sourced from Jinan Pengyue Experimental Animal Breeding […]

| remaining at 10 min, 0.49 µM [%] | remaining at 20 min, 0.49 µM [%] | remaining at 0.5 h, 0.49 µM [%] | remaining at 40 min, 0.49 µM [%] | remaining at 50 min, 0.49 µM [%] | remaining at 1 h, 0.49 µM [%] | half-life at 0.49 µM [h] | CLint(liver) Rat [mL/min/g] | SMILES |
| --- | --- | --- | --- | --- | --- | --- | --- | --- |
| 84.7 | 88 | 77.2 | 73.7 | 64.2 | 64 | 1.56 | 0.78 | Cc1c(C#N)cccc1-c1cc(-c2cn(Cc3cccc(C#N)n3)nn2)nc(N)n1 [Compound 7f, 6-((4-(2-Amino-6-(3-cyano-2-methylphenyl)pyrimidin-4-yl)-1H-1,2,3-triazol-1-yl)methyl)picolinonitrile] |
| 74.9 | 72.8 | 67.8 | 61 | 53.8 | 50.7 | 1.12 | 1.08 | Cc1c(C#N)cccc1-c1cc(-c2cn(Cc3cccc(C(N)=O)n3)nn2)nc(N)n1 [Compound 7i, 6-((4-(2-Amino-6-(3-cyano-2-methylphenyl)pyrimidin-4-yl)-1H-1,2,3-triazol-1-yl)methyl)picolinamide] |
